Test results as given in BindingDB's records for doi:10.1016/j.bmcl.2008.08.079 (Abbott Laboratories, 2008).

Columns and labels:
[1] = molecular target: Serine/threonine-protein kinase pim-1 (Homo sapiens, UniProt P11309); test: Pim Kinase Assay; details: pH 7.5; 22 °C
Description: (§1) Assays were conducted in 384-well v-bottom polypropylene plates. Test compound was mixed with Pim and biotinylated peptide substrate, followed by immediate initiation with [gamma-33 P]ATP. Reactions were quenched and transferred to 384-well streptavidin-coated plates. After incubation, radioactivity was counted on a TopCount Scintillation Plate Reader (Packard).

[2] = molecular target: Serine/threonine-protein kinase pim-2 (Homo sapiens, UniProt Q9P1W9); test: Pim Kinase Assay; details: pH 7.5; 22 °C
Description: as §1

Serine/threonine-protein kinase pim-1, sequence (P11309 whole entry): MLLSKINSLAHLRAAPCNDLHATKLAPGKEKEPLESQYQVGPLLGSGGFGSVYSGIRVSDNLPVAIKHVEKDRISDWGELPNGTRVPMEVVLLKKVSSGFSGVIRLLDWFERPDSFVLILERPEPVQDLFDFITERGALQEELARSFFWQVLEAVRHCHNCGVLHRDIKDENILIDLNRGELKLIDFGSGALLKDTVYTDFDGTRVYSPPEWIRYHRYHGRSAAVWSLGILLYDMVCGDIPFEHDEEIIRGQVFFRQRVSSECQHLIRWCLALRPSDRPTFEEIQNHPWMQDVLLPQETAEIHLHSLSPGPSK
Serine/threonine-protein kinase pim-2, sequence (Q9P1W9 whole entry): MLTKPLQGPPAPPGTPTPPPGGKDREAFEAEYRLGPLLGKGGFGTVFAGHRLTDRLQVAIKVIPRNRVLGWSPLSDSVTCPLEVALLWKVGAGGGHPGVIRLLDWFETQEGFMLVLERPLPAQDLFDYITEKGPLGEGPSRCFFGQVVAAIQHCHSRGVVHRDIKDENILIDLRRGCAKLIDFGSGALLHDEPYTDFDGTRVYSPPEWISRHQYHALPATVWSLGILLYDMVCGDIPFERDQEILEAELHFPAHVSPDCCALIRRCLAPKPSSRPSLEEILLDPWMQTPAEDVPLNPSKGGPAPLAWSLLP

| Structure (SMILES) | Ki [1] | Ki [2] |
| --- | --- | --- |
| CC(C)n1c2noc(=O)c-2c(O)c2cc(F)c(Cl)cc21 [7-chloro-6-fluoro-9-(propan-2-yl)-1H,3H,4H,9H-quinolino[2,3-c][1,2]oxazole-3,4-dione] | 0.0123 µM | 0.0628 µM |
| CCn1c2noc(=O)c-2c(O)c2cc(O)c(Cl)cc21 [7-chloro-9-ethyl-6-hydroxy-1H,3H,4H,9H-quinolino[2,3-c][1,2]oxazole-3,4-dione] |  | 0.0435 µM |
| CCn1c2noc(=O)c-2c(O)c2cc(OC)c(Cl)cc21 [7-chloro-9-ethyl-6-methoxy-1H,3H,4H,9H-quinolino[2,3-c][1,2]oxazole-3,4-dione] | 2.7 µM | > 1.42 µM |
| CCCCn1c2noc(=O)c-2c(O)c2cc(F)c(Cl)cc21 [9-butyl-7-chloro-6-fluoro-1H,3H,4H,9H-quinolino[2,3-c][1,2]oxazole-3,4-dione] | 0.015 µM | 0.165 µM |

The remaining lines, values ahead:

| Ki [1] | Ki [2] | Structure (SMILES) |
| --- | --- | --- |
| 0.0501 µM | > 1.42 µM | CCn1c2cc(Cl)c(F)cc2c(=O)c2c(=O)on(C)c21 [7-chloro-9-ethyl-6-fluoro-1-methyl-1H,3H,4H,9H-quinolino[2,3-c][1,2]oxazole-3,4-dione] |
| 0.0365 µM | 0.558 µM | O=c1onc2n(Cc3ccccc3)c3cc(Cl)c(F)cc3c(O)c1-2 [9-benzyl-7-chloro-6-fluoro-1H,3H,4H,9H-quinolino[2,3-c][1,2]oxazole-3,4-dione] |
